Values joined by “and” are separate entries in the source; they are usually repeats but may differ in a detail not shown here. Equal values may be shown once. Active and inactive are the calls of the source. No rule for the calls is given here.
Test system: rodent lifetime carcinogenesis bioassay, tumor incidence TD50
Assay: carcinogenic potency in animals, long-term in vivo studies, CPDB compilation (AID 1745844)

N#CN=C(N)N
carcinogen call (rat, strain F344/DuCrj, females, in feed, site: any site (literature study), lesion: several types, types named in the paper, dosed 104 weeks, study length 113 weeks): negative (inactive)
carcinogen call (rat, strain F344/DuCrj, females, in feed, site: liver, lesion: one or several types, types not named, dosed 104 weeks, study length 113 weeks): negative (inactive)
carcinogen call (rat, strain F344/DuCrj, males, in feed, site: any site (literature study), lesion: several types, types named in the paper, dosed 104 weeks, study length 113 weeks): negative (inactive)
TD50 (rat, strain F344/DuCrj, males, in feed, site: liver, lesion: hepatocellular adenoma, dosed 104 weeks, study length 113 weeks): 109000 mg/kg/day (inactive)
TD50 (rat, strain F344/DuCrj, males, in feed, site: subcutaneous tissue, lesion: lipoma, dosed 104 weeks, study length 113 weeks): 15600 mg/kg/day (inactive)

CC1(C)S[C@@H]2[C@H](NC(=O)COc3ccccc3)C(=O)N2[C@H]1C(=O)O
carcinogen call (mouse, strain B6C3F1, females, by gavage, site: any site (literature study), lesion: several types, types named in the paper, dosed 104 weeks, study length 104 weeks): negative (inactive)
TD50 (mouse, strain B6C3F1, females, by gavage, site: liver, lesion: hepatocellular adenoma + hepatocellular carcinoma + neoplastic nodule, dosed 104 weeks, study length 104 weeks): 10200 mg/kg/day
TD50 (mouse, strain B6C3F1, females, by gavage, site: lung, lesion: alveolar/bronchiolar adenoma + alveolar/bronchiolar carcinoma, dosed 104 weeks, study length 104 weeks): 16600 mg/kg/day
carcinogen call (mouse, strain B6C3F1, males, by gavage, site: any site (literature study), lesion: several types, types named in the paper, dosed 104 weeks, study length 104 weeks): negative (inactive)
TD50 (rat, strain Fischer 344, females, by gavage, site: any site (literature study), lesion: several types, types named in the paper, dosed 103 weeks, study length 104 weeks): 503 mg/kg/day
TD50 (rat, strain Fischer 344, females, by gavage, site: clitoral gland, lesion: adenoma, NOS, dosed 103 weeks, study length 104 weeks): 3650 mg/kg/day
TD50 (rat, strain Fischer 344, females, by gavage, site: thyroid gland, lesion: c-cell adenoma + c-cell carcinoma, dosed 103 weeks, study length 104 weeks): 1360 mg/kg/day (inactive)
TD50 (rat, strain Fischer 344, females, by gavage, site: thyroid gland, lesion: c-cell adenoma, dosed 103 weeks, study length 104 weeks): 1620 mg/kg/day
TD50 (rat, strain Fischer 344, males, by gavage, site: any site (literature study), lesion: several types, types named in the paper, dosed 103 weeks, study length 104 weeks): 544 mg/kg/day
TD50 (rat, strain Fischer 344, males, by gavage, site: liver, lesion: hepatocellular adenoma + hepatocellular carcinoma + neoplastic nodule, dosed 103 weeks, study length 104 weeks): 12200 mg/kg/day
TD50 (rat, strain Fischer 344, males, by gavage, site: pituitary gland, anterior, lesion: adenoma, NOS + carcinoma, NOS, dosed 103 weeks, study length 104 weeks): 874 mg/kg/day (inactive)
TD50 (rat, strain Fischer 344, males, by gavage, site: pituitary gland, anterior, lesion: adenoma, NOS, dosed 103 weeks, study length 104 weeks): 949 mg/kg/day

ClC1=C(Cl)C2(Cl)C3C(Cl)C(Cl)CC3C1(Cl)C2(Cl)Cl (stereo not given)
TD50 (mouse, strain B6C3F1, females, in feed, site: any site (literature study), lesion: several types, types named in the paper, dosed 80 weeks, study length 90 weeks): 5.16 mg/kg/day
TD50 (mouse, strain B6C3F1, females, in feed, site: liver, lesion: hepatocellular adenoma + hepatocellular carcinoma + neoplastic nodule, dosed 80 weeks, study length 90 weeks): 4.89 mg/kg/day
TD50 (mouse, strain B6C3F1, females, in feed, site: liver, lesion: hepatocellular carcinoma, dosed 80 weeks, study length 89 weeks): 5.28 mg/kg/day
TD50 (mouse, strain B6C3F1, females, in feed, site: liver, lesion: hepatocellular carcinoma, dosed 80 weeks, study length 90 weeks): 4.89 mg/kg/day
TD50 (mouse, strain B6C3F1, females, in feed, site: lung, lesion: alveolar/bronchiolar adenoma + alveolar/bronchiolar carcinoma, dosed 80 weeks, study length 90 weeks): 228 mg/kg/day
TD50 (mouse, strain B6C3F1, males, in feed, site: any site (literature study), lesion: several types, types named in the paper, dosed 80 weeks, study length 90 weeks): 2.31 mg/kg/day
TD50 (mouse, strain B6C3F1, males, in feed, site: liver, lesion: hepatocellular adenoma + hepatocellular carcinoma + neoplastic nodule, dosed 80 weeks, study length 90 weeks): 2.15 mg/kg/day
TD50 (mouse, strain B6C3F1, males, in feed, site: liver, lesion: hepatocellular adenoma, dosed 60 weeks, study length 61 weeks): 0.903 mg/kg/day
carcinogen call (mouse, strain B6C3F1, males, in feed, site: liver, lesion: hepatocellular adenoma, dosed 60 weeks, study length 68 weeks): positive
TD50 (mouse, strain B6C3F1, males, in feed, site: liver, lesion: hepatocellular adenoma, dosed 60 weeks, study length 72 weeks): 0.727 mg/kg/day
carcinogen call (mouse, strain B6C3F1, males, in feed, site: liver, lesion: hepatocellular adenoma, dosed 68 weeks, study length 68 weeks): positive
TD50 (mouse, strain B6C3F1, males, in feed, site: liver, lesion: hepatocellular adenoma, dosed 72 weeks, study length 72 weeks): 1.96 mg/kg/day
TD50 (mouse, strain B6C3F1, males, in feed, site: liver, lesion: hepatocellular carcinoma, dosed 60 weeks, study length 61 weeks): 1.91 mg/kg/day
TD50 (mouse, strain B6C3F1, males, in feed, site: liver, lesion: hepatocellular carcinoma, dosed 60 weeks, study length 68 weeks): 1.49 mg/kg/day
TD50 (mouse, strain B6C3F1, males, in feed, site: liver, lesion: hepatocellular carcinoma, dosed 60 weeks, study length 72 weeks): 2.67 mg/kg/day
TD50 (mouse, strain B6C3F1, males, in feed, site: liver, lesion: hepatocellular carcinoma, dosed 68 weeks, study length 68 weeks): 0.878 mg/kg/day
TD50 (mouse, strain B6C3F1, males, in feed, site: liver, lesion: hepatocellular carcinoma, dosed 72 weeks, study length 72 weeks): 2.96 mg/kg/day
TD50 (mouse, strain B6C3F1, males, in feed, site: liver, lesion: hepatocellular carcinoma, dosed 80 weeks, study length 89 weeks): 2.48 mg/kg/day
TD50 (mouse, strain B6C3F1, males, in feed, site: liver, lesion: hepatocellular carcinoma, dosed 80 weeks, study length 90 weeks): 2.15 mg/kg/day
TD50 (mouse, strain B6C3F1, males, in feed, site: liver, lesion: several types, types named in the paper, dosed 60 weeks, study length 61 weeks): 0.583 mg/kg/day
carcinogen call (mouse, strain B6C3F1, males, in feed, site: liver, lesion: several types, types named in the paper, dosed 60 weeks, study length 68 weeks): positive
carcinogen call (mouse, strain B6C3F1, males, in feed, site: liver, lesion: several types, types named in the paper, dosed 68 weeks, study length 68 weeks): positive
TD50 (mouse, strain B6C3F1, males, in feed, site: liver, lesion: several types, types named in the paper, dosed 72 weeks, study length 72 weeks): 1.68 mg/kg/day
TD50 (mouse, strain B6C3F1, males, in feed, site: lung, lesion: alveolar/bronchiolar adenoma + alveolar/bronchiolar carcinoma, dosed 80 weeks, study length 90 weeks): 656 mg/kg/day
TD50 (mouse, strain C57BL/10J, males, in feed, site: liver, lesion: several types, types named in the paper, dosed 104 weeks, study length 104 weeks): 13.1 mg/kg/day
TD50 (mouse, strain Charles River CD1, females, in feed, site: liver, lesion: hepatoma, dosed 78 weeks, study length 78 weeks): 71.8 mg/kg/day
TD50 (mouse, strain Charles River CD1, females, in feed, site: liver, lesion: nodular hyperplasia, dosed 78 weeks, study length 78 weeks): 1.78 mg/kg/day
TD50 (mouse, strain Charles River CD1, males, in feed, site: liver, lesion: nodular hyperplasia, dosed 78 weeks, study length 78 weeks): 1.45 mg/kg/day
TD50 (mouse, strain D2B6F1 mice, males, in feed, site: liver, lesion: hepatocellular adenoma, dosed 60 weeks, study length 61 weeks): 2.33 mg/kg/day
TD50 (mouse, strain D2B6F1 mice, males, in feed, site: liver, lesion: hepatocellular adenoma, dosed 69 weeks, study length 69 weeks): 1.29 mg/kg/day
TD50 (mouse, strain D2B6F1 mice, males, in feed, site: liver, lesion: hepatocellular adenoma, dosed 87 weeks, study length 87 weeks): 4.98 mg/kg/day
TD50 (mouse, strain D2B6F1 mice, males, in feed, site: liver, lesion: hepatocellular carcinoma, dosed 60 weeks, study length 61 weeks): 6.09 mg/kg/day
TD50 (mouse, strain D2B6F1 mice, males, in feed, site: liver, lesion: hepatocellular carcinoma, dosed 69 weeks, study length 69 weeks): 3.31 mg/kg/day
TD50 (mouse, strain D2B6F1 mice, males, in feed, site: liver, lesion: hepatocellular carcinoma, dosed 87 weeks, study length 87 weeks): 5.21 mg/kg/day
TD50 (mouse, strain D2B6F1 mice, males, in feed, site: liver, lesion: several types, types named in the paper, dosed 60 weeks, study length 61 weeks): 1.93 mg/kg/day
TD50 (mouse, strain D2B6F1 mice, males, in feed, site: liver, lesion: several types, types named in the paper, dosed 69 weeks, study length 69 weeks): 1.03 mg/kg/day
TD50 (mouse, strain D2B6F1 mice, males, in feed, site: liver, lesion: several types, types named in the paper, dosed 87 weeks, study length 87 weeks): 3.83 mg/kg/day
TD50 (mouse, strain ICR, females, in feed, site: liver, lesion: hepatocellular adenoma, dosed 106 weeks, study length 106 weeks): 19.3 mg/kg/day
TD50 (mouse, strain ICR, females, in feed, site: liver, lesion: hepatocellular carcinoma, dosed 106 weeks, study length 106 weeks): 60 mg/kg/day
TD50 (mouse, strain ICR, females, in feed, site: liver, lesion: several types, types named in the paper, dosed 106 weeks, study length 106 weeks): 13.4 mg/kg/day
TD50 (mouse, strain ICR, males, in feed, site: all sites, lesion: hemangioma, dosed 106 weeks, study length 106 weeks): 4.01 mg/kg/day
TD50 (mouse, strain ICR, males, in feed, site: liver, lesion: hepatocellular adenoma, dosed 106 weeks, study length 106 weeks): 2.98 mg/kg/day
TD50 (mouse, strain ICR, males, in feed, site: liver, lesion: hepatocellular carcinoma, dosed 106 weeks, study length 106 weeks): 7.38 mg/kg/day
TD50 (mouse, strain ICR, males, in feed, site: liver, lesion: several types, types named in the paper, dosed 106 weeks, study length 106 weeks): 1.71 mg/kg/day
TD50 (rat, strain Fischer 344, females, in feed, site: mammary gland, lesion: fibroadenoma, dosed 130 weeks, study length 130 weeks): 0.32 mg/kg/day
TD50 (rat, strain Fischer 344, males, in feed, site: liver, lesion: hepatocellular adenoma, dosed 130 weeks, study length 130 weeks): 15.3 mg/kg/day
TD50 (rat, strain Osborne-Mendel, females, in feed, site: any site (literature study), lesion: several types, types named in the paper, dosed 80 weeks, study length 109 weeks): 18.4 mg/kg/day (inactive)
TD50 (rat, strain Osborne-Mendel, females, in feed, site: liver, lesion: hepatocellular adenoma + hepatocellular carcinoma + neoplastic nodule, dosed 80 weeks, study length 109 weeks): 121 mg/kg/day
TD50 (rat, strain Osborne-Mendel, females, in feed, site: uterus, lesion: adenocarcinoma + sarcoma, dosed 80 weeks, study length 109 weeks): 101 mg/kg/day (inactive)
TD50 (rat, strain Osborne-Mendel, males, in feed, site: all sites, lesion: fibrous histiocytoma, dosed 80 weeks, study length 109 weeks): 42.5 mg/kg/day and 60.4 mg/kg/day (inactive)
TD50 (rat, strain Osborne-Mendel, males, in feed, site: any site (literature study), lesion: several types, types named in the paper, dosed 80 weeks, study length 109 weeks): 21.6 mg/kg/day
TD50 (rat, strain Osborne-Mendel, males, in feed, site: thyroid gland, lesion: follicular-cell adenoma + follicular-cell carcinoma, dosed 80 weeks, study length 109 weeks): 41.6 mg/kg/day (inactive)

CN(N=O)c1ccccc1
TD50 (rat, strain Chester Beatty albino, females, in drinking water, site: esophagus, lesion: benign tumor, dosed 67 weeks, study length 67 weeks): 32 mg/kg/day
carcinogen call (rat, strain Chester Beatty albino, females, in drinking water, site: esophagus, lesion: several types, types named in the paper, dosed 67 weeks, study length 67 weeks): positive
TD50 (rat, strain Chester Beatty albino, females, in drinking water, site: esophagus, lesion: squamous-cell carcinoma, dosed 67 weeks, study length 67 weeks): 26.4 mg/kg/day
carcinogen call (rat, strain Chester Beatty albino, females, in drinking water, site: liver, lesion: one or several types, types not named, dosed 67 weeks, study length 67 weeks): negative (inactive)
TD50 (rat, strain Chester Beatty albino, males, in drinking water, site: esophagus, lesion: benign tumor, dosed 60 weeks, study length 60 weeks): 70.4 mg/kg/day
TD50 (rat, strain Chester Beatty albino, males, in drinking water, site: esophagus, lesion: several types, types named in the paper, dosed 60 weeks, study length 60 weeks): 5.27 mg/kg/day
TD50 (rat, strain Chester Beatty albino, males, in drinking water, site: esophagus, lesion: squamous-cell carcinoma, dosed 60 weeks, study length 60 weeks): 10.5 mg/kg/day
carcinogen call (rat, strain Chester Beatty albino, males, in drinking water, site: liver, lesion: one or several types, types not named, dosed 60 weeks, study length 60 weeks): negative (inactive)
TD50 (rat, strain Fischer 344, females, in drinking water, site: esophagus, lesion: carcinoma, dosed 50 weeks, study length 114 weeks): 0.458 mg/kg/day
TD50 (rat, strain Fischer 344, males, in drinking water, site: esophagus, lesion: several types, types named in the paper, dosed 50 weeks, study length 114 weeks): 0.272 mg/kg/day
TD50 (rat, strain Sprague-Dawley, both sexes, in drinking water, site: esophagus, lesion: several types, types named in the paper, dosed 104 weeks, study length 104 weeks): 0.0343 mg/kg/day

Source: PubChem BioAssay AID1745844 (Carcinogenic Potency Database (CPDB), 2022)
